Experimental findings from patent EP0937723A1, “Novel sulfonamides, process for their preparation and medicaments containing them” (Roche Diagnostics GmbH, priority 1998, dated 1999) are described below.

What is called pKi is the negative decadic logarithm of the Ki, by convention in mol/L.

pKi: −log10 of the molar value. Where a name gives a salt, the structure may show the parent alone.

For one experiment, the system named is Pferdethrombin. As to the kind of experiment: Thrombin time in citrated plasma with thrombin reagent, ball coagulometer. Format: biochemical, Pferd. Conditions: 500 µM final concentration; time as difference to control (control ca. 24 s). The protocol:
(§1) Neun Teile frisches Blut gesunder Spender werden mit einem Teil Natriumcitratlösung (0.11 Mol/l) gemischt und bei ca. 3000 U/min 10 Minuten bei Raumtemperatur zentrifügiert. Das Plasma wird abpipettiert und kann bei Raumtemperatur ca. 8 h aufbewahrt werden.
200 µl Citratplasma werden in einem Kugelkoagulometer (KC10 der Fa. Amelung) 2 Minuten bei 37°C inkubiert. Zu 190 µl vortemperiertem Thrombin-Reagenz (Boehringer Mannheim GmbH; enthält ca. 3 U/ml Pferdethrombin und 0.0125 M Ca^++ gibt man 10 µl Dimethylsulfoxid (DMSO) oder eine Lösung der Wirksubstanz in DMSO. Mit Zugabe dieser 200 µl Lösung zum Plasma wird eine Stoppuhr gestartet und der Zeitpunkt bis zum Eintritt der Gerinnung bestimmt. Die Thrombinzeit beträgt bei den Kontrollmessungen ca. 24 Sekunden und wird durch Wirksubstanzen verlängert. Sofern bei den Messungen nach 5 Minuten keine Gerinnung eintrat, wurde der Versuch gestoppt (>300).
In Tabelle 1 sind die gemessenen Thrombinzeiten in Sekunden als Differenz zur Kontrolle angegeben. Die Konzentrationen der Wirksubstanzen betrugen im Endvolumen 500 µM (TT 500).

In another experiment the target is T1, humanem Faktor Xa (Homo sapiens, UniProt P00742).
T1 construct: humanem Faktor Xa; purchased Boehringer Mannheim GmbH
As to the kind of experiment: Inhibition constant Ki, chromogenic substrate Chromozym X, photometric at 405 nm. Format: biochemical. The note with it: pH 7.5, 25°C, 0.1 M phosphate buffer, 0.2 M NaCl; read-out: Ki (fXa). The method, then: (§2) Die kinetischen Messungen wurden in 0.2 M Kochsalz und 0.5 % Polyethylenglycol 6000 enthaltendem 0.1 M Phosphatpuffer (Herstellung siehe unten) bei pH 7.5 und 25°C in Polystyrol-Halbmikroküvetten in einem Gesamtvolumen von 1 ml durchgeführt . Die Reaktionen wurden durch Zugabe von Enzym zu vorinkubierten Lösungen, die entweder Dimethylsulfoxid (Kontrolle) oder Lösungen der Testsubstanz in DMSO (Inhibitor-Stocklösungen: 10 mM in DMSO) enthielten, gestartet. Die Zunahme der Extinktion bei 405 nm als Folge der Freisetzung von 4-Nitroanilin aus dem Substrat wurde photometrisch über einen Zeitraum von 12 Minuten verfolgt. Im Abstand von 20 Sekunden wurden Meßwerte (Extinktion vs. Zeit) ermittelt und diese Daten per Computer gespeichert.
(§3) Zur Bestimmung der Inhibitionskonstanten Ki wurde wie folgt vorgegangen: Die Geschwindigkeiten V0 (Extinktionsänderung pro Sekunde; Messungen ohne Inhibitor) und Vi (Extinktionsänderung pro Sekunde; Messungen mit Inhibitor) wurden durch lineare Regression bestimmt, wobei nur die Meßpunkte berücksichtigt wurden, bei der sich die Substratkonzentration um weniger als 15% verringerte. Aus einer Meßreihe (konstante Inhibitorkonzentration, variable Substratkonzentrationen) bestimmte man KM und VMAX durch nichtlinearen Fit auf die Gleichung V =(Vmax *[S])/([S]+KM) [formula] […]

Experiment [1] has as its target T2, bovines pankreatisches Trypsin (Bos taurus, UniProt P00760).
T2 construct: bovines pankreatisches Trypsin (Sigma); purchased Sigma; host or cells: bovine pancreas
T2 sequence (P00760 24-246): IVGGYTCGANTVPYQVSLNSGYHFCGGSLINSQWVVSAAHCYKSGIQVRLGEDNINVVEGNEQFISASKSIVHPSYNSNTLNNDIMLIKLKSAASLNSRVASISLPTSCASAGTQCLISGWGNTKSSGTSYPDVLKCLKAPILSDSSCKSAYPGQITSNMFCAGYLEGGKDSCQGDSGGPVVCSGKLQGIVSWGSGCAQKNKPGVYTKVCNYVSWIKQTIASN
As to the kind of experiment: Inhibition constant Ki, chromogenic substrate S-2238, photometric at 405 nm. It counts as biochemical, bovin. Conditions: pH 7.5, 25°C, 0.1 M phosphate buffer, 0.2 M NaCl. The protocol:
as §2, §3

The subject of another experiment is Citratplasma. As to the kind of experiment: Activated partial thromboplastin time (APTT) in citrated plasma, ball coagulometer. Format: biochemical. The note with it: time as difference to control (control ca. 28-35 s). The method, then:
as §1
100 µl Citratplasma und 100 µl APTT-Reagenz (Diagnostica Stago / Boehringer Mannheim GmbH; enthält Lyophilisat Cephalin mit mikrokristallinem Kieselguraktivator) werden zusammen mit 10 µl Dimethylsulfoxid (DMSO) oder 10 µl einer Lösung der Wirksubstanz in DMSO in einem Kugelkoagulometer (KC10 der Fa. Amelung) 3 Minuten bei 37°C inkubiert. Mit Zugabe von 100 µl 0.025 M Calciumchlorid-Lösung wird eine Stoppuhr gestartet und der Zeitpunkt bis zum Eintritt der Gerinnung bestimmt. Die APTT beträgt bei den Kontrollmessungen ca. 28 -35 Sekunden und wird durch Wirksubstanzen verlängert. Sofern bei den Messungen nach 5 Minuten keine Gerinnung eintrat, wurde der Versuch gestoppt (>300).
In Tabelle 1 sind die gemessenen APTT-Zeiten in Sekunden als Differenz zur Kontrolle angegeben. Die Konzentrationen der Wirksubstanzen betrugen im Endvolumen 1000 µM (APTT 1000), 100 µM (APTT 100), 10 µM (APTT 10), 1 µM (APTT 1).

The target of the next experiment is T3, Humanes α-Thrombin (Homo sapiens, UniProt P00734).
T3 construct: Humanes α-Thrombin; purchased Sigma
As to the kind of experiment: Inhibition constant Ki, chromogenic substrate S-2238, photometric at 405 nm. It counts as biochemical. The note with it: pH 7.5, 25°C, 0.1 M phosphate buffer, 0.2 M NaCl. The protocol:
as §2, §3

T1 sequence (P00742 235-488 limits assumed): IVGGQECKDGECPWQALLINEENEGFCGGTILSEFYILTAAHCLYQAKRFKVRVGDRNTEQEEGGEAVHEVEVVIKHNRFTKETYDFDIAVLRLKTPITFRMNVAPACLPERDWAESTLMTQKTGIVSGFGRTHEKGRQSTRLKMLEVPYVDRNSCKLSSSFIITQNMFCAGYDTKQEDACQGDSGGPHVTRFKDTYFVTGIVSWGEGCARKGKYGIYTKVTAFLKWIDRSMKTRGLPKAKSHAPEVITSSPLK
T1 sequence (P00742 41-179 partner limits assumed): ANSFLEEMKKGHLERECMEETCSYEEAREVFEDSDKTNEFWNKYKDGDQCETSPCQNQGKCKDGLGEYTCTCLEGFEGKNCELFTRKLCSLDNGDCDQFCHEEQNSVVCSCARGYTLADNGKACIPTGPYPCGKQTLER

Consider `N=C(N)N1CCC(Oc2ccc(S(=O)(=O)Nc3ccc4c(c3)CN(C(=N)N)CC4)cc2)CC1` [Beispiel 1, 7-[4-(1-Carbamimidoyl-piperidin-4-yloxy)-benzolsulfonylamino]-3,4-dihydro-1H-isochinolin-2-carboxamidin-dihydrochlorid], for which the “TT 500” value in the experiment on Pferdethrombin is reported as 40 Sekunden. In addition, the pKi at humanem Faktor Xa is 8.00; in experiment [1], 7.00; on Humanes α-Thrombin it was 5.70. The “APTT 1” value with Citratplasma (1 µM final concentration) was determined as 12 Sekunden. In addition, in the experiment on Citratplasma (10 µM final concentration), the “APTT 10” value came out at 50 Sekunden. In the experiment on Citratplasma (100 µM final concentration), the “APTT 100” value was 140 Sekunden. Further, the “APTT 1000” value in the experiment with Citratplasma (1000 µM final concentration, test stopped after 5 min (>300)) is listed as > 300 Sekunden.
